Measurements reported in patent US20240293558A1, “KRAS INHIBITOR CONJUGATES” (Erasca, Inc., priority 2021, published 2024).
Where two headings read alike, the source gives them in different places.

Tests used:
KRAS G12D = KRAS G12D (Homo sapiens, UniProt P01116, G12D); assay: In-vitro RAS-RAF binding assay (RRB), HTRF/FRET; format: biochemical; parameters: Biotinylated KRAS protein amino acids 1-169 (produced at Erasca); made in house; conditions: read-out: Inhibition of RAS-RAF Binding (in-vitro) KRAS (G12D) IC50
How it was run: (§1)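 Compounds preincubated with terbium-labelled biotinylated KRAS (aa 1-169, 30 nM) before 60 min SOS1-catalysed exchange to GTPgS. Binding of the d2-labelled cRAF RBD (30 nM) is read as FRET at equilibrium in duplicate. Buffer: 50 mM HEPES pH 7.5, 100 mM NaCl, 1 mM MgCl2, 1 mM DTT.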

KRAS (WT) = target: T1, KRAS (WT) (Homo sapiens, UniProt P01116); assay: In-vitro RAS-RAF binding assay (RRB), HTRF/FRET; format: biochemical; conditions: read-out: Inhibition of RAS-RAF Binding (in-vitro) KRAS (WT) IC50
T1 construct: Biotinylated KRAS protein amino acids 1-169 (produced at Erasca); made in house
How it was run: as §1

[1] = target: T2, KRas G12D fused to HiBiT peptide (Homo sapiens, UniProt P01116, G12D); assay: ASPC-1 HiBit assay to determine G12D degradation; format: cell-based; conditions: AsPC-1 HiBiT cells, 24-hour incubation; read-out: ASPC-1 HiBit DC50 (C)
T2 construct: endogenous in cells; host or cells: AsPC-1 HiBiT knock-in single clone (Cas9 RNP + ssODN)
How it was run: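 Homozygous AsPC-1 clone with N-terminal HiBiT knock-in on endogenous KRas G12D, 24 h compound exposure, top dose 10 μM, 3-fold, 10 points, 1% DMSO. Lytic HiBiT luminescence normalised to DMSO and inhibitor controls gives % degradation; DC50 from 4-parameter fit after hook-effect points removed.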

[2] = Table 2, average of multiple runs of each compound

T1 sequence (P01116 1-169 isoform P01116-2): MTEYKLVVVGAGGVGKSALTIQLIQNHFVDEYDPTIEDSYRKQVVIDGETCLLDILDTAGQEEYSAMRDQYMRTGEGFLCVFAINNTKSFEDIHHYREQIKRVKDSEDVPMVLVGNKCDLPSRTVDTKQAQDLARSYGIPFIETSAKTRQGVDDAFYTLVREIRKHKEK
Sequence of KRAS G12D (P01116 1-169 isoform P01116-2 G12D): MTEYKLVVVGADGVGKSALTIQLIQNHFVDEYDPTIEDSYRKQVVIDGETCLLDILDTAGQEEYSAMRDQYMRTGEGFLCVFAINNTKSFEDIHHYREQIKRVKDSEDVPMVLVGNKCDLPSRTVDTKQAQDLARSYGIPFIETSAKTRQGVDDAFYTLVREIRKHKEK
T2 sequence (P01116 1-188 isoform P01116-2 G12D): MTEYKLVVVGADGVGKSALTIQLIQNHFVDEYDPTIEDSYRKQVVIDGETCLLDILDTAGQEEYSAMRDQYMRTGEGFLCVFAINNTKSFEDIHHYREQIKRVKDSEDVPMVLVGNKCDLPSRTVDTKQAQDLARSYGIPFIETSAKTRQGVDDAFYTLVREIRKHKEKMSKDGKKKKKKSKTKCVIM

Row | SMILES | IC50 (KRAS G12D; [2]) | IC50 (KRAS (WT); [2]) | DC50 [1] | IC50 (KRAS G12D; Table 1) | IC50 (KRAS (WT); Table 1)
1 | C[C@H](NC(=O)[C@@H]1C[C@@H](O)CN1C(=O)[C@@H](NC(=O)CCOCCCN1CCC[C@H]1COc1nc(N2CC3CCC(C2)N3)c2cc(C(F)(F)F)c(-c3ccc(F)c4sc(N)c(C#N)c34)c(F)c2n1)C(C)(C)C)c1ccc(-c2c(F)cccc2F)cc1 (single isomer, unassigned) [Example 20] | 8.52 nM | 26.9 nM | 22.7 nM | – | –
2 | Cc1ncsc1-c1ccc([C@H](C)NC(=O)[C@@H]2C[C@@H](O)CN2C(=O)[C@@H](NC(=O)CCOCCCN2CCCC2COc2nc(N3CC4CCC(C3)N4)c3cc(Cl)c(-c4ccc(F)c5sc(N)c(C#N)c45)c(F)c3n2)C(C)(C)C)cc1 (stereo partly drawn) [Example 8, (2S,4R)-1-[(2S)-2-[3-[3-[2-[[7-(2-amino-3-cyano-7-fluoro-benzothiophen-4-yl)-6-chloro-4-(3,8-diazabicyclo[3.2.1]octan-3-yl)-8-fluoro-quinazolin-2-yl]oxymethyl]pyrrolidin-1-yl]propoxy]propanoylamino]-3,3-dimethyl-butanoyl]-4-hydroxy-N-[(1S)-1-[4-(4-methylthiazol-5-yl)phenyl]ethyl]pyrrolidine-2-carboxamide] | 8.18 nM | 25.9 nM | 126 nM | 11 nM | 51 nM
